Measured values as given in patent US20250188069A1, “COMPOUNDS AND METHODS FOR DEGRADING CASEIN KINASE 1 ALPHA” (PIN THERAPEUTICS, INC., priority 2022, published 2025).
Where a name gives a salt, the structure may show the parent alone.

Tested on: MV-4-11 cells
Assay: AML cell viability assay (RealTime-Glo)
Assay type: cell-based
Settings: Homo sapiens, MV4-11, 44 h, read-out: Cell viability classification

SMILES | IC50 [nM]
O=C1CCC(N2Cc3c(cccc3N(CCC3CC3)[C@H]3CC[C@@H](Nc4ccccn4)CC3)C2=O)C(=O)N1 (some centres unmarked) [Compound 575, 3-{4-[(2-cyclopropylethyl)[(1s,4s)-4-(pyridin-2-ylamino)cyclohexyl]amino]-1-oxo-3H-isoindol-2-yl}piperidine-2,6-dione] | 100 to 1000

Same assay, conditions: Homo sapiens, MV4-11; IC50 class; MV-4-11 cells, RealTime-Glo after 44 hrs of treatment (TABLE 1); read-out: Cell viability classification

SMILES | IC50 [nM]
C[C@H]1CC[C@@H](N(c2cccc3c2CN(C2CCC(=O)NC2=O)C3=O)[C@@H]2CC[C@H](N)C2)CC1 (stereo partly drawn) [Compound 354, 3-(4-(((1R,3S)-3-aminocyclopentyl)((1s,4S)-4-methylcyclohexyl)amino)-1-oxoisoindolin-2-yl)piperidine-2,6-dione] | > 1000
CCCN(CCCN)c1cccc2c1CN(C1CCC(=O)NC1=O)C2=O (centres unmarked) [Compound 53, 3-(4-((3-aminopropyl)(propyl)amino)-1-oxoisoindolin-2-yl)piperidine-2,6-dione] | 100 to 1000
O=C1CCC(N2Cc3c(cccc3N(CCC3CC3)[C@@H]3CC[C@H](NCC4CC4)C3)C2=O)C(=O)N1 (stereo partly drawn) [Compound 355, 3-(4-((2-cyclopropylethyl)((1R,3S)-3-((cyclopropylmethyl)amino)cyclopenty 1)amino)-1-oxoisoindolin-2-yl)piperidine-2,6-dione] | < 100
N[C@H]1CC[C@H](N(CCCC2CCCOC2)c2cccc3c2CN(C2CCC(=O)NC2=O)C3=O)CC1 (some centres unmarked) [Compound 340, 3-(4-(((1r,4r)-4-aminocyclohexyl)(3-(tetrahydro-2H-pyran-3-yl)propyl)amino)-1-oxoisoindolin-2-yl)piperidine-2,6-dione, HCl] | 100 to 1000
NC(=O)[C@H]1CC[C@@H](N(CCCC2CCOCC2)c2cccc3c2CN(C2CCC(=O)NC2=O)C3=O)C1 (stereo partly drawn) [Compound 361, (1S,3R)-3-((2-(2,6-dioxopiperidin-3-yl)-1-oxoisoindolin-4-yl)(3-(tetrahydro-2H-pyran-4-yl)propyl)amino)cyclopentane-1-carboxamide] | 100 to 1000
CNC(=O)[C@H]1CC[C@@H](N(CCC2CC2)c2cccc3c2CN(C2CCC(=O)NC2=O)C3=O)C1 (stereo partly drawn) [Compound 360, (1S,3R)-3-((2-cyclopropylethyl)(2-(2,6-dioxopiperidin-3-yl)-1-oxoisoindolin-4-yl)amino)-N-methylcyclopentane-1-carboxamide] | < 100

Same assay, conditions: Homo sapiens, MV4-11; IC50 class; MV-4-11 cells, RealTime-Glo after 44 hrs of treatment (TABLE 2); read-out: Cell viability classification

SMILES | IC50 [nM]
NCCCCN(c1cccc2c1CN(C1CCC(=O)NC1=O)C2=O)[C@H]1CC[C@@H](CN)CC1 (some centres unmarked) [Compound 104, 3-(4-((4-aminobutyl)((1s,4s)-4-(aminomethyl)cyclohexyl)amino)-1-oxoisoindolin-2-yl)piperidine-2,6-dione dihydrochloride] | 100 to 1000
NCCCCN(C[C@H]1CC[C@H](N)CC1)c1cccc2c1CN(C1CCC(=O)NC1=O)C2=O (some centres unmarked) [Compound 107, 3-(4-((4-aminobutyl)(((1r,4r)-4-aminocyclohexyl)methyl)amino)-1-oxoisoindolin-2-yl)piperidine-2,6-dione, HCl] | 100 to 1000
CCCCCN(CCCCNC(=O)NC)c1cccc2c1CN(C1CCC(=O)NC1=O)C2=O (centres unmarked) [Compound 143, 1-(4-((2-(2,6-dioxopiperidin-3-yl)-1-oxoisoindolin-4-yl)(pentyl)amino)butyl)-3-methylurea] | 100 to 1000
NCCCCN(C[C@H]1CC[C@@H](N)CC1)c1cccc2c1CN(C1CCC(=O)NC1=O)C2=O (some centres unmarked) [Compound 106, 3-(4-((4-aminobutyl)(((1s,4s)-4-aminocyclohexyl)methyl)amino)-1-oxoisoindolin-2-yl)piperidine-2,6-dione, 2HCl] | 100 to 1000
CC(C)(CN)CCN(CCCCN)c1cccc2c1CN(C1CCC(=O)NC1=O)C2=O (centres unmarked) [Compound 124, 3-(4-((4-amino-3,3-dimethylbutyl)(4-aminobutyl)amino)-1-oxoisoindolin-2-yl)piperidine-2,6-dione dihydrochloride] | < 100
CCCCCN(CCCCNC(=O)CNC)c1cccc2c1CN(C1CCC(=O)NC1=O)C2=O (centres unmarked) [Compound 181, N-(4-((2-(2,6-dioxopiperidin-3-yl)-1-oxoisoindolin-4-yl)(pentyl)amino)butyl)-2-(methylamino)acetamide] | 100 to 1000
NCCCCN(CCCN)c1cccc2c1CN(C1CCC(=O)NC1=O)C2=O (centres unmarked) [Compound 97, 3-(4-((4-aminobutyl)(3-aminopropyl)amino)-1-oxoisoindolin-2-yl)piperidine-2,6-dione dihydrochloride] | > 1000
C[C@H]1CC[C@@H](N(CCCCN)c2cccc3c2CN(C2CCC(=O)NC2=O)C3=O)CC1 (some centres unmarked) [Compound 108, 3-(4-((4-aminobutyl)((1s,4s)-4-methylcyclohexyl)amino)-1-oxoisoindolin-2-yl)piperidine-2,6-dione hydrochloride] | < 100
CC(C)(CCN)CCN(CCCCN)c1cccc2c1CN(C1CCC(=O)NC1=O)C2=O (centres unmarked) [Compound 125, 3-(4-((5-amino-3,3-dimethylpentyl)(4-aminobutyl)amino)-1-oxoisoindolin-2-yl)piperidine-2,6-dione dihydrochloride] | 100 to 1000
CCCCCN(CCC(C)(C)CN)c1cccc2c1CN(C1CCC(=O)NC1=O)C2=O (centres unmarked) [Compound 123, 3-(4-((4-amino-3,3-dimethylbutyl)(pentyl)amino)-1-oxoisoindolin-2-yl)piperidine-2,6-dione hydrochloride] | < 100

Same assay, conditions: Homo sapiens, MV4-11; IC50 class; MV-4-11 cells, RealTime-Glo after 44 hrs of treatment (TABLE 4); read-out: Cell viability classification

SMILES | IC50 [nM]
O=C1CCC(N2Cc3c(cccc3N(CCC3CC3)[C@H]3CC[C@@H](NCC4(F)CCC4)CC3)C2=O)C(=O)N1 (some centres unmarked) [Compound 613A, 3-{4-[(2-cyclopropylethyl)[(1s,4s)-4-{[(1-fluorocyclobutyl)methyl]amino}cyclohexyl]amino]-1-oxo-3H-isoindol-2-yl}piperidine-2,6-dione] | 100 to 1000
N[C@H]1C[C@H](CN(CC2CC3(CCC3)C2)c2cccc3c2CN(C2CCC(=O)NC2=O)C3=O)C1 (some centres unmarked) [Compound 558-2, 3-[1-oxo-4-({[(1r,3r)-3-aminocyclobutyl]methyl}({spiro[3.3]heptan-2-ylmethyl})amino)-3H-isoindol-2-yl]piperidine-2,6-dione] | < 100
O=C1CCC(N2Cc3c(cccc3N(CCC3CC3)[C@H]3CC[C@H](c4nnc[nH]4)CC3)C2=O)C(=O)N1 (some centres unmarked) [Compound 574, 3-{4-[(2-cyclopropylethyl)[(1r,4r)-4-(4H-1,2,4-triazol-3-yl)cyclohexyl]amino]-1-oxo-3H-isoindol-2-yl}piperidine-2,6-dione; formate] | 100 to 1000
O=C1CCC(N2Cc3c(cccc3N(CCCCC(F)(F)F)[C@H]3CC[C@@H](NCCC(F)(F)F)CC3)C2=O)C(=O)N1 (some centres unmarked) [Compound 636A, 3-(1-oxo-4-{[(1s,4s)-4-[(3,3,3-trifluoropropyl)amino]cyclohexyl](5,5,5-trifluoropentyl)amino}-3H-isoindol-2-yl)piperidine-2,6-dione; trifluoroacetate] | > 1000
O=C1CCC(N2Cc3c(cccc3N(CCC3CC3)[C@H]3CC[C@H](NCC4(C(F)(F)F)CCC4)CC3)C2=O)C(=O)N1 (some centres unmarked) [Compound 614, 3-{4-[(2-cyclopropylethyl)[(1r,4r)-4-({[1-(trifluoromethyl)cyclobutyl]methyl}amino)cyclohexyl]amino]-1-oxo-3H-isoindol-2-yl}piperidine-2,6-dione; trifluoro acetate] | 100 to 1000
O=C1CCC(N2Cc3c(cccc3N(CCC3CC3)[C@H]3CC[C@@H](NCC4(F)COC4)CC3)C2=O)C(=O)N1 (some centres unmarked) [Compound 616A, 3-{4-[(2-cyclopropylethyl)[(1s,4s)-4-{[(3-fluorooxetan-3-yl)methyl]amino}cyclohexyl]amino]-1-oxo-3H-isoindol-2-yl}piperidine-2,6-dione; trifluoroacetate] | 100 to 1000
O=C1CCC(N2Cc3c(cccc3N(CCC3CC3)[C@H]3CC[C@H](NCC(=O)N4CCC(F)(F)CC4)CC3)C2=O)C(=O)N1 (some centres unmarked) [Compound 561, 3-{4-[(2-cyclopropylethyl)[(1r,4r)-4-{[2-(4,4-difluoropiperidin-1-yl)-2-oxoethyl]amino}cyclohexyl]amino]-1-oxo-3H-isoindol-2-yl}piperidine-2,6-dione] | < 100
CC(N[C@H]1CC[C@H](N(CCC2CC2)c2cccc3c2CN(C2CCC(=O)NC2=O)C3=O)CC1)C(F)F (some centres unmarked) [Compound 583, 3-{4-[(2-cyclopropylethyl)[(1r,4r)-4-[(1,1-difluoropropan-2-yl)amino]cyclohexyl]amino]-1-oxo-3H-isoindol-2-yl}piperidine-2,6-dione] | 100 to 1000

Same assay, conditions: Homo sapiens, MV4-11; IC50 class; MV-4-11 cells, RealTime-Glo after 44 hrs of treatment (TABLE 5); read-out: Cell viability classification

SMILES | IC50 [nM]
CCCN(c1cccc2c1CN(C1CCC(=O)NC1=O)C2=O)[C@H]1CC[C@H](NCCC(F)(F)F)CC1 (some centres unmarked) [Compound 648, 3-(1-oxo-4-{propyl[(1r,4r)-4-[(3,3,3-trifluoropropyl)amino]cyclohexyl]amino}-3H-isoindol-2-yl)piperidine-2,6-dione trifluoroacetic acid] | < 100
O=C1CCC(N2Cc3c(cccc3N(CCC3CC3)[C@H]3CC[C@@H](N4CC[C@H](C(F)(F)F)C4)CC3)C2=O)C(=O)N1 (stereo partly drawn) [Compound 712A, 3-(4-((2-cyclopropylethyl)((1R,4s)-4-((S)-3-(trifluoromethyl)pyrrolidin-1-yl)cyclohexyl)amino)-1-oxoisoindolin-2-yl)piperidine-2,6-dione 2,2,2-trifluoroacetate] | > 1000
O=C1CCC(N2Cc3c(cccc3N(CC3CC3)[C@H]3CC[C@H](NCC4(C(F)(F)F)CC4)CC3)C2=O)C(=O)N1 (some centres unmarked) [Compound 653, 3-(4-((cyclopropylmethyl)((1r,4r)-4-(((1-(trifluoromethyl)cyclopropyl)methyl)amino)cyclohexyl)amino)-1-oxoisoindolin-2-yl)piperidine-2,6-dione formate] | 100 to 1000
O=C1CCC(N2Cc3c(cccc3N(CCC3CC3)[C@H]3CC[C@H](NCCC4(C(F)(F)F)CC4)CC3)C2=O)C(=O)N1 (some centres unmarked) [Compound 645, 3-{4-[(2-cyclopropylethyl)[(1r,4r)-4-({2-[1-(trifluoromethyl)cyclopropyl]ethyl}amino)cyclohexyl]amino]-1-oxo-3H-isoindol-2-yl}piperidine-2,6-dione trifluoroacetic acid] | < 100
